Test results from PubChem BioAssay (NCI).
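A five-concentration, 48-hour dose response in 96-well plates underlies each endpoint, interpolated linearly between surrounding concentrations. TGI: total growth inhibition.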

Legend:
Assay in all cases: NCI anticancer screen, dose series, 48 h
U251 CNS = system: U251 CNS
M14 melanoma = system: M14 melanoma
A498 renal = system: A498 renal
MALME-3M melanoma = system: MALME-3M melanoma
SF-539 CNS = system: SF-539 CNS
KM12 colon = system: KM12 colon
ACHN renal = system: ACHN renal
SN12C renal = system: SN12C renal
OVCAR-3 ovarian = system: OVCAR-3 ovarian
A549 NSCLC = system: A549 NSCLC
LOX IMVI melanoma = system: LOX IMVI melanoma
UACC-62 melanoma = system: UACC-62 melanoma
OVCAR-4 ovarian = system: OVCAR-4 ovarian
HCT-15 colon = system: HCT-15 colon
CAKI-1 renal = system: CAKI-1 renal
SK-OV-3 ovarian = system: SK-OV-3 ovarian
UO-31 renal = system: UO-31 renal
SR leukemia = system: SR leukemia
HCC-2998 colon = system: HCC-2998 colon
TK-10 renal = system: TK-10 renal
MDA-N = system: MDA-N
MDA-MB-231 breast = system: MDA-MB-231 breast
SNB-19 CNS = system: SNB-19 CNS
SF-268 CNS = system: SF-268 CNS
NCI-H460 lung = system: NCI-H460 lung
OVCAR-5 ovarian = system: OVCAR-5 ovarian
MOLT-4 leukemia = system: MOLT-4 leukemia
HCT-116 colon = system: HCT-116 colon
K-562 leukemia = system: K-562 leukemia
HT29 colon = system: HT29 colon
DU-145 prostate = system: DU-145 prostate
HOP-62 NSCLC = system: HOP-62 NSCLC
SK-MEL-28 melanoma = system: SK-MEL-28 melanoma
RPMI-8226 leukemia = system: RPMI-8226 leukemia
NCI-H226 lung = system: NCI-H226 lung
HL-60(TB) leukemia = system: HL-60(TB) leukemia
UACC-257 melanoma = system: UACC-257 melanoma
RXF 393 renal = system: RXF 393 renal
BT-549 breast = system: BT-549 breast
NCI-H23 lung = system: NCI-H23 lung
EKVX NSCLC = system: EKVX NSCLC
MCF7 breast = system: MCF7 breast
CCRF-CEM leukemia = system: CCRF-CEM leukemia
MDA-MB-435 = system: MDA-MB-435
T-47D breast = system: T-47D breast
SK-MEL-5 melanoma = system: SK-MEL-5 melanoma
SK-MEL-2 melanoma = system: SK-MEL-2 melanoma
HOP-92 NSCLC = system: HOP-92 NSCLC
SNB-75 CNS = system: SNB-75 CNS
786-0 renal = system: 786-0 renal
PC-3 prostate = system: PC-3 prostate
IGROV1 ovarian = system: IGROV1 ovarian
OVCAR-8 ovarian = system: OVCAR-8 ovarian
COLO 205 colon = system: COLO 205 colon
SW-620 colon = system: SW-620 colon
NCI-H522 lung = system: NCI-H522 lung
SF-295 CNS = system: SF-295 CNS

Work on `CCc1c(-c2ccccc2)[nH]c2ccccc2c1=O` yielded a TGI (U251 CNS) of over 100 µM, a TGI (M14 melanoma) of over 100 µM and a TGI (A498 renal) of over 100 µM. For the same compound, the TGI (MALME-3M melanoma) was over 100 µM, the TGI (SF-539 CNS) was over 100 µM and the TGI (KM12 colon) was over 100 µM. For the same compound, the TGI (ACHN renal) was over 100 µM, the TGI (SN12C renal) was over 100 µM and the TGI (OVCAR-3 ovarian) was over 100 µM. It also gave a TGI (A549 NSCLC) of over 100 µM, a TGI (LOX IMVI melanoma) of over 100 µM and a TGI (UACC-62 melanoma) of over 100 µM. It also gave a TGI (OVCAR-4 ovarian) of over 100 µM, a TGI (HCT-15 colon) of over 100 µM and a TGI (CAKI-1 renal) of over 100 µM. It also gave a TGI (SK-OV-3 ovarian) of over 100 µM, a TGI (UO-31 renal) of 0.266 µM and a TGI (SR leukemia) of over 100 µM. The TGI (HCC-2998 colon) was over 100 µM, the TGI (TK-10 renal) was over 100 µM and the TGI (MDA-N) was over 100 µM. For the same compound, the TGI (MDA-MB-231 breast) was over 100 µM, the TGI (SNB-19 CNS) was over 100 µM and the TGI (SF-268 CNS) was over 100 µM. For the same compound, the TGI (NCI-H460 lung) was over 100 µM, the TGI (OVCAR-5 ovarian) was over 100 µM and the TGI (MOLT-4 leukemia) was over 100 µM. For the same compound, the TGI (HCT-116 colon) was over 100 µM, the TGI (K-562 leukemia) was over 100 µM and the TGI (HT29 colon) was over 100 µM. The TGI (DU-145 prostate) was over 100 µM, the TGI (HOP-62 NSCLC) was over 100 µM and the TGI (SK-MEL-28 melanoma) was over 100 µM. The TGI (RPMI-8226 leukemia) was over 100 µM, the TGI (NCI-H226 lung) was 84 µM and the TGI (HL-60(TB) leukemia) was over 100 µM. The TGI (UACC-257 melanoma) was over 100 µM, the TGI (RXF 393 renal) was over 100 µM and the TGI (BT-549 breast) was over 100 µM. For the same compound, the TGI (NCI-H23 lung) was over 100 µM, the TGI (EKVX NSCLC) was over 100 µM and the TGI (MCF7 breast) was over 100 µM. It also gave a TGI (CCRF-CEM leukemia) of over 100 µM, a TGI (MDA-MB-435) of over 100 µM and a TGI (T-47D breast) of over 100 µM. It also gave a TGI (SK-MEL-5 melanoma) of over 100 µM and a TGI (SK-MEL-2 melanoma) of over 100 µM.
For `COc1ccc(-c2cc(-c3ccccc3)nc(N)c2-c2ccc3ccccc3c2)cc1`, the TGI (M14 melanoma) was 5.68 µM, the TGI (HOP-92 NSCLC) was 2.91 µM and the TGI (A498 renal) was 5.08 µM. For the same compound, the TGI (MALME-3M melanoma) was 2.75 µM, the TGI (KM12 colon) was 3.2 µM and the TGI (ACHN renal) was 4.77 µM. The TGI (SN12C renal) was 3.43 µM, the TGI (OVCAR-3 ovarian) was 5.08 µM and the TGI (A549 NSCLC) was 5.39 µM. The TGI (LOX IMVI melanoma) was 3.1 µM, the TGI (UACC-62 melanoma) was 2.96 µM and the TGI (OVCAR-4 ovarian) was 2.42 µM. It also gave a TGI (HCT-15 colon) of 2.92 µM, a TGI (SNB-75 CNS) of 5 µM and a TGI (CAKI-1 renal) of 15.1 µM. The TGI (SK-OV-3 ovarian) was 17.4 µM, the TGI (UO-31 renal) was 5.13 µM and the TGI (SR leukemia) was 7.31 µM. The TGI (HCC-2998 colon) was 3.29 µM, the TGI (TK-10 renal) was 11.6 µM and the TGI (MDA-N) was 3.17 µM. For the same compound, the TGI (MDA-MB-231 breast) was 3.17 µM, the TGI (SNB-19 CNS) was 2.57 µM and the TGI (SF-268 CNS) was 9.2 µM. For the same compound, the TGI (NCI-H460 lung) was 2.9 µM, the TGI (OVCAR-5 ovarian) was 3.71 µM and the TGI (MOLT-4 leukemia) was 7.38 µM. It also gave a TGI (HCT-116 colon) of 2.5 µM, a TGI (K-562 leukemia) of over 100 µM and a TGI (HT29 colon) of 2.28 µM. The TGI (HOP-62 NSCLC) was 4.8 µM, the TGI (786-0 renal) was 3.1 µM and the TGI (RPMI-8226 leukemia) was 4.74 µM. For the same compound, the TGI (NCI-H226 lung) was 2.99 µM, the TGI (UACC-257 melanoma) was 3.52 µM and the TGI (PC-3 prostate) was 5.45 µM. The TGI (IGROV1 ovarian) was 3.11 µM, the TGI (RXF 393 renal) was 3.39 µM and the TGI (BT-549 breast) was 3.09 µM. It also gave a TGI (NCI-H23 lung) of 3.71 µM, a TGI (OVCAR-8 ovarian) of 3.09 µM and a TGI (EKVX NSCLC) of 3.66 µM. For the same compound, the TGI (MCF7 breast) was 3.36 µM, the TGI (COLO 205 colon) was 3.21 µM and the TGI (CCRF-CEM leukemia) was over 100 µM. For the same compound, the TGI (MDA-MB-435) was 4.68 µM, the TGI (T-47D breast) was 3.38 µM and the TGI (SK-MEL-5 melanoma) was 3.27 µM. For the same compound, the TGI (SK-MEL-2 melanoma) was 3.88 µM.
`Cc1nc2ccccc2c(=O)n1NC(=O)c1ccc(N)cc1` was tested, and the TGI (SW-620 colon) was over 100 µM, the TGI (U251 CNS) was over 100 µM and the TGI (M14 melanoma) was over 100 µM. The TGI (HOP-92 NSCLC) was over 100 µM, the TGI (A498 renal) was over 100 µM and the TGI (MALME-3M melanoma) was over 100 µM. The TGI (SF-539 CNS) was over 100 µM, the TGI (KM12 colon) was over 100 µM and the TGI (ACHN renal) was over 100 µM. For the same compound, the TGI (SN12C renal) was over 100 µM, the TGI (OVCAR-3 ovarian) was over 100 µM and the TGI (A549 NSCLC) was over 100 µM. It also gave a TGI (LOX IMVI melanoma) of over 100 µM, a TGI (UACC-62 melanoma) of over 100 µM and a TGI (OVCAR-4 ovarian) of over 100 µM. It also gave a TGI (SNB-75 CNS) of over 100 µM, a TGI (SK-OV-3 ovarian) of over 100 µM and a TGI (UO-31 renal) of over 100 µM. The TGI (SR leukemia) was over 100 µM, the TGI (HCC-2998 colon) was over 100 µM and the TGI (TK-10 renal) was over 100 µM. The TGI (MDA-N) was over 100 µM, the TGI (MDA-MB-231 breast) was over 100 µM and the TGI (SNB-19 CNS) was over 100 µM. For the same compound, the TGI (SF-268 CNS) was over 100 µM, the TGI (NCI-H460 lung) was over 100 µM and the TGI (OVCAR-5 ovarian) was over 100 µM. For the same compound, the TGI (MOLT-4 leukemia) was over 100 µM, the TGI (HCT-116 colon) was over 100 µM and the TGI (K-562 leukemia) was over 100 µM. It also gave a TGI (HT29 colon) of over 100 µM, a TGI (DU-145 prostate) of over 100 µM and a TGI (HOP-62 NSCLC) of over 100 µM. It also gave a TGI (786-0 renal) of over 100 µM, a TGI (SK-MEL-28 melanoma) of over 100 µM and a TGI (RPMI-8226 leukemia) of over 100 µM. It also gave a TGI (NCI-H226 lung) of over 100 µM, a TGI (HL-60(TB) leukemia) of over 100 µM and a TGI (UACC-257 melanoma) of over 100 µM. It also gave a TGI (PC-3 prostate) of over 100 µM, a TGI (IGROV1 ovarian) of over 100 µM and a TGI (NCI-H522 lung) of over 100 µM. The TGI (RXF 393 renal) was over 100 µM, the TGI (BT-549 breast) was over 100 µM and the TGI (NCI-H23 lung) was over 100 µM. The TGI (OVCAR-8 ovarian) was over 100 µM, the TGI (EKVX NSCLC) was over 100 µM and the TGI (MCF7 breast) was over 100 µM. The TGI (COLO 205 colon) was over 100 µM, the TGI (SF-295 CNS) was over 100 µM and the TGI (CCRF-CEM leukemia) was over 100 µM. The TGI (MDA-MB-435) was over 100 µM, the TGI (T-47D breast) was over 100 µM and the TGI (SK-MEL-5 melanoma) was over 100 µM.
